# According to ChEMBL document CHEMBL3797055, “Glabridin-chalcone hybrid molecules: drug resistance reversal agent against clinical isolates of methicillin-resistant Staphylococcus aureus” (Medchemcomm, 2016):
# Experiments:
# Type in all cases: functional
# Staphylococcus aureus [1] = test: Potentiation of norfloxacin-induced antibacterial activity against clinical isolates of methicillin-resistant Staphylococcus aureus ST10760 assessed as reduction in norfloxacin MIC by checkerboard assay relative to control
# Staphylococcus aureus [2] = test: Ratio of MIC for clinical isolates of methicillin-resistant Staphylococcus aureus P4423 to MIC for clinical isolates of methicillin-resistant Staphylococcus aureus P4423 in presence of norfloxacin
# Staphylococcus aureus [3] = test: Antibacterial activity against clinical isolates of methicillin-resistant Staphylococcus aureus ST10342 by checkerboard assay in presence of norfloxacin
# Staphylococcus aureus [4] = test: Potentiation of norfloxacin-induced antibacterial activity against clinical isolates of methicillin-resistant Staphylococcus aureus P4423 assessed as norfloxacin MIC by checkerboard assay
# Staphylococcus aureus [5] = test: Bactericidal activity against clinical isolates of methicillin-resistant Staphylococcus aureus ST2071 assessed as reduction in viability at 0.5 MIC after 24 hrs by time kill kinetic analysis in presence of norfloxacin relative to control
# Staphylococcus aureus [6] = test: Potentiation of norfloxacin-induced antibacterial activity against clinical isolates of methicillin-resistant Staphylococcus aureus ST2071 assessed as reduction in norfloxacin MIC by checkerboard assay relative to control
# Staphylococcus aureus [7] = test: Antibacterial activity against clinical isolates of methicillin-resistant Staphylococcus aureus ST10342 by broth microdilution assay
# Staphylococcus aureus [8] = test: Antibacterial activity against clinical isolates of methicillin-resistant Staphylococcus aureus P4629 by broth microdilution assay
# Staphylococcus aureus [9] = test: Antibacterial activity against clinical isolates of methicillin-resistant Staphylococcus aureus P4650 by checkerboard assay in presence of norfloxacin
# Staphylococcus aureus [10] = test: Antibacterial activity against clinical isolates of methicillin-resistant Staphylococcus aureus ST10760 by broth microdilution assay
# Staphylococcus aureus [11] = test: Bactericidal activity against clinical isolates of methicillin-resistant Staphylococcus aureus ST2071 assessed as reduction in viability at 0.5 MIC after 24 hrs by time kill kinetic analysis relative to control
# Staphylococcus aureus [12] = test: Potentiation of norfloxacin-induced antibacterial activity against clinical isolates of methicillin-resistant Staphylococcus aureus ST10760 assessed as norfloxacin MIC by checkerboard assay
# Staphylococcus aureus [13] = test: Potentiation of norfloxacin-induced antibacterial activity against clinical isolates of methicillin-resistant Staphylococcus aureus P4650 assessed as reduction in norfloxacin MIC by checkerboard assay relative to control
# Staphylococcus aureus [14] = test: Antibacterial activity against clinical isolates of methicillin-resistant Staphylococcus aureus P4423 by broth microdilution assay
# Staphylococcus aureus [15] = test: Ratio of MIC for clinical isolates of methicillin-resistant Staphylococcus aureus ST2071 to MIC for clinical isolates of methicillin-resistant Staphylococcus aureus ST2071 in presence of norfloxacin
# Staphylococcus aureus [16] = test: Antibacterial activity against clinical isolates of methicillin-resistant Staphylococcus aureus P4629 by checkerboard assay in presence of norfloxacin
# Staphylococcus aureus [17] = test: Potentiation of norfloxacin-induced antibacterial activity against clinical isolates of methicillin-resistant Staphylococcus aureus ST10342 assessed as norfloxacin MIC by checkerboard assay
# Staphylococcus aureus [18] = test: Antibacterial activity against clinical isolates of methicillin-resistant Staphylococcus aureus ST2071 by checkerboard assay in presence of norfloxacin
# Staphylococcus aureus [19] = test: Potentiation of norfloxacin-induced antibacterial activity against clinical isolates of methicillin-resistant Staphylococcus aureus P4650 assessed as norfloxacin MIC by checkerboard assay
# Staphylococcus aureus [20] = test: Potentiation of norfloxacin-induced antibacterial activity against clinical isolates of methicillin-resistant Staphylococcus aureus P4423 assessed as reduction in norfloxacin MIC by checkerboard assay relative to control
# Staphylococcus aureus [21] = test: Potentiation of norfloxacin-induced antibacterial activity against clinical isolates of methicillin-resistant Staphylococcus aureus P4629 assessed as reduction in norfloxacin MIC by checkerboard assay relative to control
# Staphylococcus aureus [22] = test: Potentiation of norfloxacin-induced antibacterial activity against clinical isolates of methicillin-resistant Staphylococcus aureus P4629 assessed as norfloxacin MIC by checkerboard assay
# Staphylococcus aureus [23] = test: Antibacterial activity against clinical isolates of methicillin-resistant Staphylococcus aureus P4423 by checkerboard assay in presence of norfloxacin
# Staphylococcus aureus [24] = test: Antibacterial activity against clinical isolates of methicillin-resistant Staphylococcus aureus ST10760 by checkerboard assay in presence of norfloxacin
# Staphylococcus aureus [25] = test: Antibacterial activity against Staphylococcus aureus MTCC 96 by broth microdilution assay
# Staphylococcus aureus [26] = test: Potentiation of norfloxacin-induced antibacterial activity against clinical isolates of methicillin-resistant Staphylococcus aureus ST2071 assessed as norfloxacin MIC by checkerboard assay
# Staphylococcus aureus [27] = test: Antibacterial activity against clinical isolates of methicillin-resistant Staphylococcus aureus P4650 by broth microdilution assay
# Staphylococcus aureus [28] = test: Antibacterial activity against clinical isolates of methicillin-resistant Staphylococcus aureus ST2071 by broth microdilution assay
# Staphylococcus aureus [29] = test: Potentiation of norfloxacin-induced antibacterial activity against clinical isolates of methicillin-resistant Staphylococcus aureus ST10342 assessed as reduction in norfloxacin MIC by checkerboard assay relative to control
# Staphylococcus aureus [30] = test: Ratio of MIC for clinical isolates of methicillin-resistant Staphylococcus aureus ST10760 to MIC for clinical isolates of methicillin-resistant Staphylococcus aureus ST10760 in presence of norfloxacin
# Staphylococcus aureus [31] = test: Bactericidal activity against clinical isolates of methicillin-resistant Staphylococcus aureus ST2071 assessed as reduction in viability at MIC after 24 hrs by time kill kinetic analysis relative to control
# Staphylococcus aureus [32] = test: Ratio of MIC for clinical isolates of methicillin-resistant Staphylococcus aureus P4650 to MIC for clinical isolates of methicillin-resistant Staphylococcus aureus P4650 in presence of norfloxacin
# Staphylococcus aureus [33] = test: Ratio of MIC for clinical isolates of methicillin-resistant Staphylococcus aureus P4629 to MIC for clinical isolates of methicillin-resistant Staphylococcus aureus P4629 in presence of norfloxacin
structure (smiles),measurement,setting,value
COc1cc(OC)c([C@@H]2COc3c(cc(/C=C/C(=O)c4ccc(OC)c(OC)c4)c4c3C=CC(C)(C)O4)C2)cc1/C=C/C(=O)c1ccc(OC)c(OC)c1,fold change (FC),Staphylococcus aureus [1],8
same,Ratio,Staphylococcus aureus [2],4
same,fractional inhibitory concentration index (FICI),Staphylococcus aureus [3],0.75
same,MIC,Staphylococcus aureus [4],62.5 µg/mL
same,fold change (FC),Staphylococcus aureus [5],<=3
same,fold change (FC),Staphylococcus aureus [6],4
same,MIC,Staphylococcus aureus [7],12.5 µg/mL
same,MIC,Staphylococcus aureus [8],12.5 µg/mL
same,fractional inhibitory concentration index (FICI),Staphylococcus aureus [9],0.75
same,MIC,Staphylococcus aureus [10],25 µg/mL
same,fold change (FC),Staphylococcus aureus [11],<=1.52
same,MIC,Staphylococcus aureus [12],62.5 µg/mL
same,fold change (FC),Staphylococcus aureus [13],4
same,MIC,Staphylococcus aureus [14],25 µg/mL
same,Ratio,Staphylococcus aureus [15],4
same,fractional inhibitory concentration index (FICI),Staphylococcus aureus [16],0.5
same,MIC,Staphylococcus aureus [17],62.5 µg/mL
same,fractional inhibitory concentration index (FICI),Staphylococcus aureus [18],0.5
same,MIC,Staphylococcus aureus [19],62.5 µg/mL
same,fold change (FC),Staphylococcus aureus [20],4
same,fold change (FC),Staphylococcus aureus [21],4
same,MIC,Staphylococcus aureus [22],125 µg/mL
same,fractional inhibitory concentration index (FICI),Staphylococcus aureus [23],0.75
same,fractional inhibitory concentration index (FICI),Staphylococcus aureus [24],0.375
same,MIC,Staphylococcus aureus [25],12.5 µg/mL
same,MIC,Staphylococcus aureus [26],125 µg/mL
same,MIC,Staphylococcus aureus [27],12.5 µg/mL
same,MIC,Staphylococcus aureus [28],25 µg/mL
same,fold change (FC),Staphylococcus aureus [29],4
same,Ratio,Staphylococcus aureus [30],4
same,fold change (FC),Staphylococcus aureus [31],2
CC1(C)C=Cc2c(ccc3c2OC[C@@H](c2ccc(O)cc2O)C3)O1 [GLABRIDIN],fold change (FC),Staphylococcus aureus [1],4
same,fractional inhibitory concentration index (FICI),Staphylococcus aureus [3],1
same,MIC,Staphylococcus aureus [4],125 µg/mL
same,fold change (FC),Staphylococcus aureus [6],2
same,MIC,Staphylococcus aureus [7],12.5 µg/mL
same,MIC,Staphylococcus aureus [8],12.5 µg/mL
same,Ratio,Staphylococcus aureus [32],4
same,fractional inhibitory concentration index (FICI),Staphylococcus aureus [9],0.5
same,MIC,Staphylococcus aureus [10],12.5 µg/mL
same,fold change (FC),Staphylococcus aureus [11],<=1.52
same,MIC,Staphylococcus aureus [12],125 µg/mL
same,fold change (FC),Staphylococcus aureus [13],4
same,MIC,Staphylococcus aureus [14],12.5 µg/mL
same,fractional inhibitory concentration index (FICI),Staphylococcus aureus [16],0.5
same,MIC,Staphylococcus aureus [17],125 µg/mL
same,fractional inhibitory concentration index (FICI),Staphylococcus aureus [18],0.75
same,MIC,Staphylococcus aureus [19],62.5 µg/mL
same,fold change (FC),Staphylococcus aureus [20],2
same,fold change (FC),Staphylococcus aureus [21],4
same,MIC,Staphylococcus aureus [22],125 µg/mL
same,Ratio,Staphylococcus aureus [33],4
same,fractional inhibitory concentration index (FICI),Staphylococcus aureus [23],1
same,fractional inhibitory concentration index (FICI),Staphylococcus aureus [24],0.75
same,MIC,Staphylococcus aureus [25],3.12 µg/mL
same,MIC,Staphylococcus aureus [26],250 µg/mL
same,MIC,Staphylococcus aureus [27],12.5 µg/mL
same,MIC,Staphylococcus aureus [28],12.5 µg/mL
same,fold change (FC),Staphylococcus aureus [29],2
same,fold change (FC),Staphylococcus aureus [31],2
COc1ccc(C(=O)/C=C/c2cc3c(c4c2OC(C)(C)C=C4)OC[C@@H](c2ccc(OC)cc2OC)C3)c(OC)c1,MIC,Staphylococcus aureus [7],> 100 µg/mL
same,MIC,Staphylococcus aureus [8],> 100 µg/mL
same,MIC,Staphylococcus aureus [10],> 100 µg/mL
same,MIC,Staphylococcus aureus [14],> 100 µg/mL
same,MIC,Staphylococcus aureus [25],> 100 µg/mL
same,MIC,Staphylococcus aureus [27],> 100 µg/mL
same,MIC,Staphylococcus aureus [28],> 100 µg/mL
COc1cc(OC)c([C@@H]2COc3c(cc(/C=C/C(=O)c4cc(OC)c(OC)c(OC)c4)c4c3C=CC(C)(C)O4)C2)cc1/C=C/C(=O)c1cc(OC)c(OC)c(OC)c1,MIC,Staphylococcus aureus [7],100 µg/mL
same,MIC,Staphylococcus aureus [8],100 µg/mL
same,MIC,Staphylococcus aureus [10],100 µg/mL
same,MIC,Staphylococcus aureus [14],100 µg/mL
same,MIC,Staphylococcus aureus [25],50 µg/mL
same,MIC,Staphylococcus aureus [27],100 µg/mL
same,MIC,Staphylococcus aureus [28],100 µg/mL
COc1ccc([C@@H]2COc3c(cc(/C=C/C(=O)c4ccccc4OC)c4c3C=CC(C)(C)O4)C2)c(OC)c1,MIC,Staphylococcus aureus [7],50 µg/mL
same,MIC,Staphylococcus aureus [8],25 µg/mL
same,MIC,Staphylococcus aureus [10],50 µg/mL
same,MIC,Staphylococcus aureus [14],50 µg/mL
same,MIC,Staphylococcus aureus [25],25 µg/mL
same,MIC,Staphylococcus aureus [27],25 µg/mL
same,MIC,Staphylococcus aureus [28],50 µg/mL
COc1cccc(C(=O)/C=C/c2cc([C@@H]3COc4c(ccc5c4C=CC(C)(C)O5)C3)c(OC)cc2OC)c1,MIC,Staphylococcus aureus [7],50 µg/mL
same,MIC,Staphylococcus aureus [8],50 µg/mL
same,MIC,Staphylococcus aureus [10],50 µg/mL
same,MIC,Staphylococcus aureus [14],50 µg/mL
same,MIC,Staphylococcus aureus [25],25 µg/mL
same,MIC,Staphylococcus aureus [27],50 µg/mL
same,MIC,Staphylococcus aureus [28],50 µg/mL
COc1cccc(C(=O)/C=C/c2cc3c(c4c2OC(C)(C)C=C4)OC[C@@H](c2ccc(OC)cc2OC)C3)c1,MIC,Staphylococcus aureus [7],25 µg/mL
same,MIC,Staphylococcus aureus [8],25 µg/mL
same,MIC,Staphylococcus aureus [10],25 µg/mL
same,MIC,Staphylococcus aureus [14],25 µg/mL
same,MIC,Staphylococcus aureus [25],25 µg/mL
same,MIC,Staphylococcus aureus [27],25 µg/mL
same,MIC,Staphylococcus aureus [28],25 µg/mL
COc1ccc(C(=O)/C=C/c2cc([C@@H]3COc4c(cc(/C=C/C(=O)c5ccc(OC)cc5)c5c4C=CC(C)(C)O5)C3)c(OC)cc2OC)cc1,MIC,Staphylococcus aureus [7],> 100 µg/mL
same,MIC,Staphylococcus aureus [8],> 100 µg/mL
same,MIC,Staphylococcus aureus [10],> 100 µg/mL
same,MIC,Staphylococcus aureus [14],> 100 µg/mL
same,MIC,Staphylococcus aureus [25],100 µg/mL
same,MIC,Staphylococcus aureus [27],> 100 µg/mL
same,MIC,Staphylococcus aureus [28],> 100 µg/mL
